# How the values were obtained:
# [1] = tested on: human DCs derived from monocytes; assay: In vitro internalization of fluorescent ligands by human DCs derived from monocytes (flow cytometry); assay type: cell-based
# Protocol: DCs were prepared from monocytes as described previously (29) with a change in the culture media. Briefly, mononucleated cells were isolated from heparinized leukoplatelet layers (“buffy coats”) from healthy adult donors by adhesion on plastic cell culture dishes in RPMI 1640 medium supplemented with 10% human AB serum, glutamine and antibiotics for 60 minutes. Non-adhering cells were removed by 3 gentle washings with the medium. The adhering monocytes were cultured in X-VIVO 15 medium (Cambrex Bio Sciences, Paris, France) supplemented with 1% human AB serum and antibiotics and in the presence of 500 IU/ml of recombinant human interleukin-4 (rhIL-4), R&D Systems (Lille, France) and 1,000 IU/ml of recombinant human granulocyte macrophage colony-stimulating factor (rhGM-CSF), Immunotools (Friesoythe, Germany). Half of the medium, comprising all the supplements, was replaced every two days. After culture for 5 days, the non-adhering cells and those with little adhesion, corresponding to the fraction enriched in DC, were harvested, washed and used for subsequent experiments.
# Whole recombinant human FVIII (1,000 IU, Kogenate, Bayer) or B domain-deleted recombinant human FVIII (FVIII-BDD) (1,000 IU, Refacto, Wyeth) were solubilized in water and dialyzed against bicarbonate buffer (pH 9.2) containing CaCl2, 5 mM at 4° C., followed by coupling to fluorescein 5-isothiocyanate (isomer I, Sigma-Aldrich, Saint Quentin Fallavier, France) for 7-8 hours at 4° C. The labelled FVIII was then dialyzed against RPMI 1640 medium to remove non-coupled FITC. The FVIII-FITC was quantified by the Bradford method using bovine serum albumin as the standard.
# The DCs obtained in Example 1 (0.4×10^5 cells/well of a 96-well plate with 100 μl/well) were incubated with various doses (0.029, 0.057, 0.143 and 0.358 μM) of fluorescent conjugated ligands (FVIII-FITC, BDD-FVIII-FITC) obtained in Example 2 in X-VIVO medium for 0, 15, 60 and 120 min at 4° C. or at 37° C. After the incubation period, the cells were washed with cold PBS and analyzed by flow cytometry. To investigate the involvement of receptors in the internalization, the cells were preincubated for 30 min at 37° C. with […] and 1 mg/ml of mannan (Sigma-Aldrich, Saint Quentin Fallavier, France) before the addition of ligands conjugated to fluorescein. In addition to FVIII-FITC and FVIII-BDD-FITC, human α2-macroglobulin-MA (α2M) conjugated to FITC from Biomac (Leipzig, Germany), dextran-FITC (molecular weight 40,000) from Molecular Probes (Leiden, The Netherlands) and Lucifer yellow (LY-CH) from Sigma-Aldrich were used. The investigation of the internalization of FVIII was also carried out in the presence of 20 μg/ml of anti-mannose receptor monoclonal antibody (PAM-1, isotype IgG1) or anti-DC-SIGN monoclonal antibody ((AZN-D1, isotype IgG1) or mouse IgGλ,k conjugated to PE-Cy (BD Pharmingen, France). To investigate whether DC-SIGN is involved in the endocytosis of FVIII, the B lymphocyte line HD-420 transformed by wild-type EBV and transfected with DC-SIGN or not transfected was incubated with various concentrations of FVIII-FITC (0, 0.036, 0.072 and 0.143 μM) for 2 hours in RPMI 1640 medium supplemented with 10% FCS (foetal calf serum) and antibiotics. The analysis was carried out as for the DCs.
# [2] = tested on: D9E9 (T cell clone specific for FVIII); assay: In vitro activation of FVIII-specific T cell clone D9E9 (IFN-gamma production); assay type: cell-based, human; settings: antigen presented by DCs; IFNγ production; FIG. 4b
# Protocol: After washing, the DCs of Example 1 were resuspended in DMEM:F12 (1:1) medium containing 10% FCS and 10,000 DCs were introduced into each well of a 96-well cell culture plate with a round base. After incubation with mannan (1 mg/ml) in each well for 30 min, the DCs were cultured with 5,000 D9E9 (T cell clone specific for FVIII) in DMEM:F12 (1:1) medium containing 10% FCS and 20 U/ml of rhIL-2 with various doses of whole FVIII or FVIII-BDD (10, 8, 6, 4, 2 μg/ml) for 20 hours at 37° C. Like the D9E9 cells, the LE2E9 and BO2C11 lines of B cells transformed by EBV were cultured in the presence of 10 μg/ml of whole FVIII or FVIII-BDD. The control conditions were maintained in the absence of FVIII, D9E9 or DCs. As a negative control, hrFIX (Benefix, Baxter) was incubated with the cells at isomolar concentrations of FVIII. The supernatants were harvested at the end of the incubation period and tested for their production of IFNγ using the human IFN-γ Duo Set (DY285, R&D Systems) in accordance with the manufacturer's instructions.
# [3] = target: T1, binding of CTLD(4-7)-Fc to FVIII-BDD (UniProt P00451+Q61830, DEL763-1656); assay: ELISA: influence of VWF on binding of CTLD(4-7)-Fc to immobilized FVIII-BDD; settings: soluble VWF in a VWF:FVIII ratio excess; FIG. 9
# T1 construct: CTLD(4-7)-Fc a gift of Dr L. Martinez-Pomares
# T1 sequence (P00451 with tags, fused parts or gaps DEL763-1656 limits assumed): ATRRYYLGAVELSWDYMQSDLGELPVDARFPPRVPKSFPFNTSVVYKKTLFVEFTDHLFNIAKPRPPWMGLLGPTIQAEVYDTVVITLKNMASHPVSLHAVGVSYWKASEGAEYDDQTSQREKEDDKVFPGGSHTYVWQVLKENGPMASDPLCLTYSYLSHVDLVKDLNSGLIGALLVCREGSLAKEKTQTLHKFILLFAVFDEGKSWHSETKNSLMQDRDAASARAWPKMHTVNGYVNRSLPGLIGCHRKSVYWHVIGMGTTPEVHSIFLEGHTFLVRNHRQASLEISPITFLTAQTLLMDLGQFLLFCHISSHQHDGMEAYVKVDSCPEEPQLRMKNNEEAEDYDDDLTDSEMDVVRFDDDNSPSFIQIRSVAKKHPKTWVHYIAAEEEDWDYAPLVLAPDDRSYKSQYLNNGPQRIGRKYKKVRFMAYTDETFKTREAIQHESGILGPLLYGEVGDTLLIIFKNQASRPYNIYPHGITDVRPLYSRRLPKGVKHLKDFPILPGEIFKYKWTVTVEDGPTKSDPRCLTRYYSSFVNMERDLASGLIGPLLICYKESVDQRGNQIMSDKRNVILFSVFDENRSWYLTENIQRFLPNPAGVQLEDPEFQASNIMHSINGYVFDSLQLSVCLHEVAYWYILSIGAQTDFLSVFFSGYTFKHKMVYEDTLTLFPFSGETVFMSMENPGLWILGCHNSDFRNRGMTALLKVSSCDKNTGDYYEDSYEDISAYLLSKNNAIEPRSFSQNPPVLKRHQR
# T1 sequence (P00451 1668-2351 limits assumed): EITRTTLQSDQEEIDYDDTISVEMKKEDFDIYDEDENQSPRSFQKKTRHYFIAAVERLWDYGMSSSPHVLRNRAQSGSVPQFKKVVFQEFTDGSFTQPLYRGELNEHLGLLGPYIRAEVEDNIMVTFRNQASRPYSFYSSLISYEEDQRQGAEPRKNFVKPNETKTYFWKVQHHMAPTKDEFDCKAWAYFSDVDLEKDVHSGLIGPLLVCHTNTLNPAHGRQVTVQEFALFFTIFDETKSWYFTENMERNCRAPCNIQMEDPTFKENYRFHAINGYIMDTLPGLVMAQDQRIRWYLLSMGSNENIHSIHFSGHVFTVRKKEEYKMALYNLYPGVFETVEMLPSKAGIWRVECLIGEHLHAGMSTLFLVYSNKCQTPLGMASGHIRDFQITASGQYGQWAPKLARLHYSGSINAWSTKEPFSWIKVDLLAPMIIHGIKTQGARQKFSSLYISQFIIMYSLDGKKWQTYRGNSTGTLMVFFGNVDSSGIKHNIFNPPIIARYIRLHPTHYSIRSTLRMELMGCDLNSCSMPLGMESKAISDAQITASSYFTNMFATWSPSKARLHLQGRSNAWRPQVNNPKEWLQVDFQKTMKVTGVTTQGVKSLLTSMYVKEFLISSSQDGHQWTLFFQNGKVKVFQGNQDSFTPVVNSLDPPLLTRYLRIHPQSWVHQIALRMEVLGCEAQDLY
# T1 sequence (Q61830 20-1456): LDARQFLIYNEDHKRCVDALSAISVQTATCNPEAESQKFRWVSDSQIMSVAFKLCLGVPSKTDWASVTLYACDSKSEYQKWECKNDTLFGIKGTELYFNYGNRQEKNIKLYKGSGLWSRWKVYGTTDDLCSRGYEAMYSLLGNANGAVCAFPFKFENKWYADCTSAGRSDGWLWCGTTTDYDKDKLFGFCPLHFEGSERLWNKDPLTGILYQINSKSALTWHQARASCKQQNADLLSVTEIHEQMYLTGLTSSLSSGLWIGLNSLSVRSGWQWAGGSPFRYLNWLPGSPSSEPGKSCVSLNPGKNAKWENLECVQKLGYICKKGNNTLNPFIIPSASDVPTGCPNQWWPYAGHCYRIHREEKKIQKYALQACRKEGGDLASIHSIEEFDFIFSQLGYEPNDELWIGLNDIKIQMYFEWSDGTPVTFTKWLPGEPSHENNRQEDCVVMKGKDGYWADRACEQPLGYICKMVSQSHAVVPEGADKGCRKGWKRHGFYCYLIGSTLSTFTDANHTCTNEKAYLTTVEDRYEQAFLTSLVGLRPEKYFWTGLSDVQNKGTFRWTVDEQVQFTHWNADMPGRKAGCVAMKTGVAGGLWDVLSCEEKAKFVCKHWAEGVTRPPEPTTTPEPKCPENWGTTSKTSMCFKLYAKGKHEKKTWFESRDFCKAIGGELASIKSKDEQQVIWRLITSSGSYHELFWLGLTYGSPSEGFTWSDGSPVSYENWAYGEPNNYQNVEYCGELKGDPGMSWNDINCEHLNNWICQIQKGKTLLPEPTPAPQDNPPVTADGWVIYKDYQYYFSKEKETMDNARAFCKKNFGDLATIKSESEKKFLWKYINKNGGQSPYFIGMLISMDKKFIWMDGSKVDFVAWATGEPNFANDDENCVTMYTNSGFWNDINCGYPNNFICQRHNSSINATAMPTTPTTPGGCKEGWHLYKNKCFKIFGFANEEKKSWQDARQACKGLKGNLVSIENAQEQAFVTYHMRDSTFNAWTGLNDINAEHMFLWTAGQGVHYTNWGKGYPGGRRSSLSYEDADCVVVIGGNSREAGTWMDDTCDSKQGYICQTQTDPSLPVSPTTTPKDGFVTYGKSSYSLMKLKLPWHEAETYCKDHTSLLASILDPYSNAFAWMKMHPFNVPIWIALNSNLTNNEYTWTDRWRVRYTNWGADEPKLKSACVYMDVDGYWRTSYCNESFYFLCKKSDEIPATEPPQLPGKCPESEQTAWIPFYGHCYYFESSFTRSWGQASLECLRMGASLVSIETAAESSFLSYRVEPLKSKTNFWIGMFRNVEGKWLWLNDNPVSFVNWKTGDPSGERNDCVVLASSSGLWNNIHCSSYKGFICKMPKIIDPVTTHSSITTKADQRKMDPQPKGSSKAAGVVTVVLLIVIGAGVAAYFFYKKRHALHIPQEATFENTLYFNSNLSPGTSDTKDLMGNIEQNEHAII
# Protocol: ELISA plates are coated with FVIII-BDD (5.56 μg/ml, 0.033 μM). VWF (0 to 1 μM) is incubated with 10 μg/ml of the construct CTLD(4-7)-Fc for 30 min at room temperature and added to immobilized FVIII-BDD.
# [4] = cells preincubated with 5 mM EDTA
molecule,measurement,setting,value
"O=C[C@H](O)[C@@H](O)[C@@H](O)[C@H](O)CO [D-galactose, reference compound]",reduction of internalization of FVIII,"[1]; D-galactose, independently of presence or absence of domain B",did not significantly reduce
"O=C(O)CN(CCN(CC(=O)O)CC(=O)O)CC(=O)O [EDTA, reference compound]",inhibition of internalization of FVIII-BDD by immature DCs,[1]; [4],62.4±11.4%
same,inhibition of internalization of whole FVIII by immature DCs,[1]; [4],58.1±11.1%
"FIX: hrFIX (Benefix, Baxter), negative control",activation of D9E9 cells,[2],absence of proliferation
"VWF: von Willebrand factor (Willefectin, LFB)",inhibition of interaction of CTLD(4-7)-Fc with immobilized FVIII,[3],43%
"RAP: receptor-associated protein of 38 kD, blocks endocytosis of ligands by LDL receptor family members such as CD91/LRP (protein, UniProt P30533 35-357, looked up) Alpha-2-macroglobulin …: YSREKNQPKPSPKRESGEEFRMEKLNQLWEKAQRLHLPPVRLAELHADLKIQERDELAWKKLKLDGLDEDGEKEARLIRNLNVILAKYGLDGKKDARQVTSNSLSGTQEDGLDDPRLEKLWHKAKTSGKFSGEELDKLWREFLHHKEKVHEYNVLLETLSRTEEIHENVISPSDLSDIKGSVLHSRHTELKEKLRSINQGLDRLRRVSHQGYSTEAEFEEPRVIDLWDLAQSANLTDKELEAFREELKHFEAKIEKHNHYQKQLEIAHEKLRHAESVGDGERVSRSREKHALLEGRTKELGYTVKKHLQDLSGRISRARHNEL",prevention of endocytosis of FVIII by the DCs,[1]; excess of RAP,did not allow the endocytosis of FVIII by the DCs to be prevented
same,inhibition of internalization of α2M,"[1]; excess of RAP or mannan, FIG. 2f",inhibited completely

# Source: patent publication US20090317373A1, “Inhibition of the Anti-FVIII Immune Response” (Institut National De La Sante Et De La Recherche Medicale, priority 2005, published 2009)
